“And” between values parts separate entries of the source, which are not always exact repeats. Equal values may be shown once. Read-outs that look alike come from different tables or passages of the source.
Legend:
human recombinant MAO-A = target: T1, human recombinant MAO-A (Homo sapiens, UniProt P21397); type: biochemical
T1 construct: purchased Sigma-Aldrich M7316; host or cells: baculovirus-infected BTI-TN-5B1-4 insect cells (microsomes)
T1 sequence (P21397 1-527): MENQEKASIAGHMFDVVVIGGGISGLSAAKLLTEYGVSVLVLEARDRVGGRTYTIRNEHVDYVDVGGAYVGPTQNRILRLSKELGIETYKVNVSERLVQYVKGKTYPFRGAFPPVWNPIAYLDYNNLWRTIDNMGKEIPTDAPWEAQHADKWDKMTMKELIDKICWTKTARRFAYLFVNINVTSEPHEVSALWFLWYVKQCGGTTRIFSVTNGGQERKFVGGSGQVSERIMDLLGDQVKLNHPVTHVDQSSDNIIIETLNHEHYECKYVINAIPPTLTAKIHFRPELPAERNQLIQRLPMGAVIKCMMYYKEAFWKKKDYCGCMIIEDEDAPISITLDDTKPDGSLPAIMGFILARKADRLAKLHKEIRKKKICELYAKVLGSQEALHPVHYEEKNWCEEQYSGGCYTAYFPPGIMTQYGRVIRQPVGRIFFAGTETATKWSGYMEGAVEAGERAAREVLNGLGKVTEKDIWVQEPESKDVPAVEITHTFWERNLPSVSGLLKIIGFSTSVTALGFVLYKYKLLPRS

[1] = Chemical stability in phosphate buffer; type: physicochemical; settings: chemical stability in 10 mM phosphate buffer at pH 7.4; 60 days at room temperature
Method: The purity and solubility of the compounds was determined by an analytical HPLC-UV method using an LC-MS instrument (Applied Biosystems API 2000 LC/ESI-MS; HPLC Agilent 1100 binary pump system) coupled with a diode array detector (DAD) with an UV absorption in the range from 220 to 400 nm. Mass spectra were recorded on an API 2000 mass spectrometer equipped with an electrospray ion source (ESI) by using triple ion quadrupole (TIC) with an alternating full scan detection in positive (+Q) and/or negative (-Q) mode. As mobile phases for the different analytical LC methods were used methanol (Sigma-Aldrich, Chromasolv LC-MS grade), ammonium acetate (2.0 mM) and water Purelab flex.
500 µL of a 10 mM compound stock solution in DMSO, ACN or MeOH was added to a 2.0 mL HPLC glass vial containing 500 µL phosphate buffer (10 mM, pH 7.4) and sonicated for 60 sec. The sample was shaken at 37 °C for 2 hours and then left for 60 days at room temperature under light exposure. The chemical stability of compounds was checked by UV-visible spectroscopy (Figure S1).

hMAO-B [2] = target: T2, hMAO-B (Homo sapiens, UniProt P27338); settings: at IC80: NTZ compounds 1.0 nM, selegiline 30 nM, safinamide 50 nM; p-tyramine raised to 1.0 mM after 22 min
T2 sequence (P27338 1-520): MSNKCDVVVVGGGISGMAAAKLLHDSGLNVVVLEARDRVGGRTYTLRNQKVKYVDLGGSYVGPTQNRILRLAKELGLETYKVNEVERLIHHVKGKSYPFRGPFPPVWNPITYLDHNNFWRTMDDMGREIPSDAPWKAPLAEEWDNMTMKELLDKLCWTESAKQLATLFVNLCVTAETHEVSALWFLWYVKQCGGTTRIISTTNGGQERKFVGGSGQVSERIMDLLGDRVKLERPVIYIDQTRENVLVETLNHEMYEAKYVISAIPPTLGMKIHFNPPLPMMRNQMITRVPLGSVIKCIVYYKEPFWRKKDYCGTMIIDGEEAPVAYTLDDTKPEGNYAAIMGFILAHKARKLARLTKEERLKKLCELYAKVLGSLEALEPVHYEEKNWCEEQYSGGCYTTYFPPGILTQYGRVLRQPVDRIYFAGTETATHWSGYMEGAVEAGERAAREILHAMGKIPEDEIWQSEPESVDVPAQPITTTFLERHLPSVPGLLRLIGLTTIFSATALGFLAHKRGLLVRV
Method: (§1) final concentration) MAO-B inhibitors were used as references. Indazole-based compounds (1.0 nM final
(§2) concentration) as well as reference inhibitors were studied at their IC80 values without pre-incubation of
(§3) the hMAO-B enzyme/inhibitor mixtures. Control experiments without inhibitors were run for each
(§4) compound. The enzyme reaction was started by adding 10 µM of the substrate p-tyramine and the
enzymatic activity of the tested compounds was measured for 22 min. Then, the substrate concentration
fluorescence measurements for 5 h.
The measurements were conducted
(§5) in duplicate using the same hMAO-B assay conditions as described for the determination of IC50 values.

[3] = Solubility studies (HPLC-UV/ESI-MS; kinetic solubility); type: physicochemical; settings: measured, solubility in mol/L at pH 7.4 in 60 mM phosphate buffer or pure water at rt; for solubility: 60 mM phosphate buffer or pure water, pH 7.4, aqueous buffer, read-out: logS7.4
[4] = Octanol-water distribution coefficient (logD); settings: for logD7.4: measured, pH 7.4 in 60 mM phosphate buffer at rt
[5] = Solubility studies (HPLC-UV/ESI-MS; kinetic solubility); type: physicochemical; settings: thermodynamic from solid
Method: Solid […]
samples of compounds (2–4 mg) were weighed and serial diluted in 1.0 mL either of water (Purelab flex) or water-methanol (1:1). A precisely weighed sample of the respective compound in methanol (1.0 ± 0.05 mg/mL) was used as a reference. A blank solution without detectable analyte was used for instrument calibration for each experiment. The suspensions were mixed on a vortex for 5 min, sonicated for 1 h, and then shaken over night at rt. After that, the samples were left for 1 h at rt and then filtered through a 0.45 µm filter. Aliquots (10 µL) of each sample were injected into the HPLC/ESI-MS system (Applied
(1 picture or pasted object on this page, not shown here)
Biosystems API 2000 ESI-MS, HPLC Agilent 1100 binary pump system) equipped with a Phenomenex Luna C18 reverse phase column and subsequently measured by chromatographic procedure (DAD detection) with mass conformation (MS scan in positive and negative mode). The mass scan method was adapted for each tested compound depending on its limit of detection (LOD) and physicochemical properties (Table S1, Figure S2). The solubility of the compounds was calculated by Analyst software v.
1.5.1 (AB Sciex Pte. Ltd.) using one point calibration after subtraction the absorbance of the blank solution from the total analyte peak area measured for each sample in the experiments. To verify the results, an equimolar mixture (each in a concentration equal to 1.0 mg/mL) of the compounds in methanol was prepared and measured under the same conditions as described above (see Figure 4A). All experiments were performed in triplicate with at least three analytical runs for each sample.
The solubility data for tested compounds, obtained from the different analytical techniques, are […]
Table S1. Solubility data for selected compounds.
Compd. Methoda Solubility in 50% methanolb Solubility in waterb […]
a Method of detection: HPLC-UV method 1 (DAD), HPLC/ESI-MS method 2 (+Q/–Q scan: +MI+H+/– MI–H–). b The values are the mean ± SD (n ≥ 3).

[6] = PAMPA-BBB permeability assay; settings: for PAMPA-BBB −logPe: 4 h under stirring, Prisma HT buffer; for CNS+/– Prediction: from PAMPA-BBB permeability, limit for BBB permeation Pe > 4.0 × 10^−6 cm/s
Method: (§6) Measurements were performed at room temperature with incubation for 4 h under stirring.
(§7) Parallel Artificial Membrane Permeability Assay (PAMPA)
(§8) Determination of blood-brain barrier (BBB) permeability was performed using the PAMPA Explorer kit
(§9) (Pion, Inc.). Stock solutions of tested and standard compounds were prepared in DMSO (10 mM and 50
(§10) The corresponding stock solutions were diluted to a final
(§11) concentration of 10 µM and 50 µM (5.0 µL/well, 1% v/v final DMSO concentration) with pH 7.4 Prisma
(§12) HT buffer solution in deionized water (Pion) using a deep-well plate. The first row of this plate was filled
(§13) with DMSO. For the preparation of pH-dependent PAMPA experiments, the pH of Prisma solution was
(§14) adjusted to pH 3.0 or 6.2 by adding aliquots of 0.5 M NaOH. The resulting solution (200 µL) was added
(§15) to each well of the donor plate (n = 6).
(§16) the acceptor plate was coated with 5 µL/well of the GIT-0 lipid (Pion) formulation and placed on the top
(§17) of the donor plate to form a “sandwich” plate. Then, 200 µL of brain sink buffer (BSB, Pion) was added
(§18) to each well of the acceptor plate. The “sandwich” plate was incubated in a Good-Box (Pion) at 37 °C for
(§19) 4 h with stirring at 60 (ABL t.u.). After that, 150 µL/well of each well of the “sandwich” plates were
(§20) transferred into the corresponding UV read acceptor and donor plates. A blank UV read 96-well plate with
(§21) 150 µL/well of each buffer solution was prepared. An Epoch microplate reader was used to obtain the
(§22) UV-vis spectra (250–500 nm) of the solutions in the blank, acceptor, and donor plates. The Pe and –logPe
(§23) values for each compound were processed using the PAMPA Explorer software v.3.8 (Pion).

hMAO-B [7] = target: T2, hMAO-B; assay: MAO-B kinetic experiments (Lineweaver-Burk); type: biochemical; set-up: purchased Sigma-Aldrich M7441; host or cells: baculovirus-infected BTI-TN-5B1-4 insect cells (microsomes); settings: 0.5 and 1.0 nM inhibitor, varied p-tyramine
Method: as §1, §2, §3, §4
enzymatic activity of the tested compounds was measured for 22 min.
The catalytic rates of hMAO-B were measured at different
The measurements were conducted
as §5

[8] = PAMPA-BBB standard drugs; cited from earlier work
[9] = PAMPA
Method: as §6, §7, §8, §9, §10, §11, §12, §13, §14, §15, §16, §17, §18, §19, §20, §21, §22, §23

[10] = pure water (Purelab flex), water, method 1: HPLC-UV (DAD), read-out: Solubility in water Sw
[11] = pure water (Purelab flex), water, method 1: HPLC-UV (DAD), read-out: Solubility in water logSw
[12] = pure water (Purelab flex), water, method 2: HPLC/ESI-MS, read-out: Solubility in water logSw
[13] = pure water (Purelab flex), water, pure water, mean ± SD (n ≥ 3), read-out: Solubility in water
[14] = water-methanol (1:1), aqueous with cosolvent or surfactant or cyclodextrin, mean ± SD (n ≥ 3), read-out: Solubility in 50% methanol
[15] = water-methanol (1:1), aqueous with cosolvent or surfactant or cyclodextrin, method 1: HPLC-UV (DAD), read-out: Solubility in 50% methanol S
[16] = water-methanol (1:1), aqueous with cosolvent or surfactant or cyclodextrin, method 1: HPLC-UV (DAD), read-out: Solubility in 50% methanol logS
[17] = water-methanol (1:1), aqueous with cosolvent or surfactant or cyclodextrin, method 2: HPLC/ESI-MS, read-out: Solubility in 50% methanol logS
[18] = pure water (Purelab flex), water, method 2: HPLC/ESI-MS, read-out: Solubility in water Sw
[19] = water-methanol (1:1), aqueous with cosolvent or surfactant or cyclodextrin, method 2: HPLC/ESI-MS, read-out: Solubility in 50% methanol S
[20] = PAMPA-BBB validation with standard drugs

| Compound | Stability [1] | mode of interaction with hMAO-B (reversible or irreversible) (hMAO-B [2]) | logS7.4 [3] | solubility [5, 10] | solubility [5, 11] [µM] | solubility [5, 12] [µM] | solubility [5, 13] | solubility [5, 14] | solubility [5, 15] | solubility [5, 16] [µM] | solubility [5, 17] [µM] | PAMPA-BBB −logPe [6] | Papp at 4 h, 10 µM ([6]; PAMPA, pH 7.4) [×10⁻⁶ cm/s] | Reported –logPe [8] | further results |
| --- | --- | --- | --- | --- | --- | --- | --- | --- | --- | --- | --- | --- | --- | --- | --- |
| O=C(Nc1ccc(Cl)c(Cl)c1)c1ccc2[nH]ncc2c1 [NTZ-1006] | Stable | reversible inhibitors of hMAO-B | – | – | – | – | – | – | – | – | – | – | – | – | IC50 (human recombinant MAO-A): > 10 µM |
| O=C(Nc1ccc(F)c(Cl)c1)c1ccc2[nH]ncc2c1 [NTZ-1032] | Stable | – | – | – | – | – | – | – | – | – | – | – | – | – | – |
| O=C(Nc1ccc(F)c(F)c1)c1ccc2[nH]ncc2c1 [NTZ-1034] | Stable | – | −4.22 | – | – | – | – | – | – | – | – | – | – | – | logD7.4 [4]: 2.04 |
| Cn1ncc2cc(C(=O)Nc3ccc(Cl)c(Cl)c3)ccc21 [NTZ-1091] | Stable | reversible inhibitors of hMAO-B | −4.75 | 0.75 µg/mL and 2.36 µM | 2.34 | 17.8 | 5.62 µg/mL and 17.6 µM | 156 µg/mL and 490 µM | 105 µg/mL and 300 µM | 331 | 447 | 3.91 | 118 ± 6.4 | – | type of hMAO-B inhibition (Lineweaver–Burk) (hMAO-B [7]): linear and intersected at the Y-axis |
| Cn1ncc2cc(C(=O)Nc3ccc(F)c(Cl)c3)ccc21 [NTZ-1441] | Stable | – | −3.87 | 10.6 µg/mL and 34.9 µM | 34.7 | 135 | 42.1 µg/mL and 136 µM | 609 µg/mL and 2040 µM | 663 µg/mL and 2190 µM | 2190 | 2040 | 3.84 | 144 ± 3.4 | – | solubility [5, 18]: 136 ± 5.16 µM; solubility [5, 19]: 609 ± 48.7 µg/mL; solubility [3]: > 100 µM; logD7.4 [4]: 2.19; logD ([4]; octanol/water, pH 7.4): < 3 |
| Cn1ncc2cc(C(=O)Nc3ccc(F)c(F)c3)ccc21 [NTZ-1471] | Stable | – | −3.67 | 10.4 µg/mL and 36.3 µM | 38.9 | 214 | 61.6 µg/mL and 215 µM | 610 µg/mL and 2120 µM | 631 µg/mL and 2180 µM | 2190 | 2140 | 3.83 | 148 ± 2.4 | – | solubility [5, 18]: 214 ± 33.3 µM; solubility [5, 19]: 610 ± 26.2 µg/mL; solubility [3]: > 100 µM; CNS+/– Prediction [6]: CNS+ |
| CC(=O)[C@H]1CC[C@H]2[C@@H]3CCC4=CC(=O)CC[C@]4(C)[C@H]3CC[C@]12C [Progesterone, reference compound] | – | – | – | – | – | – | – | – | – | – | – | – | – | 3.7 ± 0.25 | Papp at 4 h ([6]; PAMPA, pH 7.4): 55.2 ± 0.02 ×10⁻⁶ cm/s; Experiment –logPe [6, 20]: 4.26 ± 0.00; CNS+/– Prediction [6]: CNS+ |
| CC(C)NCC(O)COc1cccc2ccccc12.Cl (stereo not shown) [Propranolol HCl, reference compound] | – | – | – | – | – | – | – | – | – | – | – | – | – | 4.1 ± 0.25 | CNS+/– Prediction [9]: CNS+; Experiment Pe [6, 20]: 98.7 ± 9.96 10-6 cm/s; Experiment –logPe [6, 20]: 4.01 ± 0.04 |
| C[C@H](NCc1ccc(OCc2cccc(F)c2)cc1)C(N)=O [Safinamide, reference compound] | – | reversible | – | – | – | – | – | – | – | – | – | – | – | – | – |
| Cn1c(=O)c2[nH]cnc2n(C)c1=O [Theophylline] | – | – | – | – | – | – | – | – | – | – | – | – | – | > 6.0 ± 0.25 | – |

— PMC6445166, “Subnanomolar indazole-5-carboxamide inhibitors of monoamine oxidase B (MAO-B) continued: indications of iron binding, experimental evidence for optimised solubility and brain penetration” (Journal of Enzyme Inhibition and Medicinal Chemistry, 2017)
